Experimental data published in patent publication US20100317528A1, “HERBICIDE CONTAINING BENZOYLPYRAZOLE COMPOUND” (ISHIHARA SANGYO KAISHA, LTD., priority 2006, published 2010).

Assays:
Assay type in all cases: in vivo
[1] = test system: redroot pigweed (Amaranthus retroflexus L.); experiment: Test Example 2: soil application on the day after sowing, redroot pigweed; conditions: Amaranthus retroflexus, read-out: Growth inhibition rate (%) Redroot pigweed; for inhibition at 250 g/ha: 250 g/ha active ingredient, observed 19th to 28th day after application
Procedure, shortened: (§1)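 Visual growth inhibition rate (%), judged 19 to 28 days post-treatment against non-treated plants (0) and complete kill (100), is reported. Treatment was a small-sprayer soil application one day after sowing, with the formulated compound diluted in water at 500 liter per hectare.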

[2] = test system: prickly sida (Sida spinosa L.); experiment: Test Example 1: foliar treatment, upland pot test, prickly sida; conditions: Sida spinosa, read-out: Growth inhibition rate (%) Prickly sida; for inhibition at 31 g/ha: 31 g/ha active ingredient, observed 17th to 25th day after application
corn (Zea mays L.) [3] = experiment: Test Example 1: foliar treatment, upland pot test, corn; conditions: Zea mays, read-out: Growth inhibition rate (%) Corn; for inhibition at 31 g/ha: 31 g/ha active ingredient, observed 17th to 25th day after application
[4] = test system: redroot pigweed (Amaranthus retroflexus L.); experiment: Test Example 1: foliar treatment, upland pot test, redroot pigweed; conditions: Amaranthus retroflexus, read-out: Growth inhibition rate (%) Redroot pigweed; for inhibition at 31 g/ha: 31 g/ha active ingredient, observed 17th to 25th day after application
Procedure, shortened: (§2)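 Upland soil pots, sown; foliar spray at pigweed cotyledon–2.0 leaf, velvetleaf 0.1–1.5 leaf, rice 1.0–3.0 leaf, wheat 1.7–3.4 leaf. WP/EC formulations, prescribed a.i. rate, 500 L/ha spray volume + 0.1 vol % spreader. Visual % inhibition, d17–25.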

[5] = test system: barnyardgrass (Echinochloa crus-galli L.); experiment: Test Example 2: soil application on the day after sowing, barnyardgrass; conditions: Echinochloa crus-galli, read-out: Growth inhibition rate (%) Barnyardgrass; for inhibition at 250 g/ha: 250 g/ha active ingredient, observed 19th to 28th day after application
Procedure, shortened: as §1

[6] = test system: soybean (Glycine max Merr.); experiment: Test Example 2: soil application on the day after sowing, soybean; conditions: Glycine max, read-out: Growth inhibition rate (%) Soybean; for inhibition at 250 g/ha: 250 g/ha active ingredient, observed 19th to 28th day after application
Procedure, shortened: as §1

[7] = test system: crabgrass (Digitaria sanguinalis L.); experiment: Test Example 1: foliar treatment, upland pot test, crabgrass; conditions: Digitaria sanguinalis, read-out: Growth inhibition rate (%) Crabgrass; for inhibition at 31 g/ha: 31 g/ha active ingredient, observed 17th to 25th day after application
[8] = test system: velvetleaf (Abutilon theophrasti MEDIC.); experiment: Test Example 1: foliar treatment, upland pot test, velvetleaf; conditions: Abutilon theophrasti, read-out: Growth inhibition rate (%) Velvetleaf; for inhibition at 31 g/ha: 31 g/ha active ingredient, observed 17th to 25th day after application
Procedure, shortened: as §2

[9] = test system: crabgrass (Digitaria sanquinalis L.); experiment: Test Example 2: soil application on the day after sowing, crabgrass; conditions: Digitaria, read-out: Growth inhibition rate (%) Crabgrass; for inhibition at 250 g/ha: 250 g/ha active ingredient, observed 19th to 28th day after application
Procedure, shortened: as §1

[10] = test system: barnyardgrass (Echinochloa crus-galli L.); experiment: Test Example 1: foliar treatment, upland pot test, barnyardgrass; conditions: Echinochloa crus-galli, read-out: Growth inhibition rate (%) Barnyardgrass; for inhibition at 31 g/ha: 31 g/ha active ingredient, observed 17th to 25th day after application
[11] = test system: green foxtail (Setaria viridis L.); experiment: Test Example 1: foliar treatment, upland pot test, green foxtail; conditions: Setaria viridis, read-out: Growth inhibition rate (%) Green foxtail; for inhibition at 31 g/ha: 31 g/ha active ingredient, observed 17th to 25th day after application
corn (Zea mays L.) [12] = experiment: Test Example 2: soil application on the day after sowing, corn; conditions: Zea mays, read-out: Growth inhibition rate (%) Corn; for inhibition at 250 g/ha: 250 g/ha active ingredient, observed 19th to 28th day after application
Procedure, shortened: as §1

[13] = test system: green foxtail (Setaria viridis L.); experiment: Test Example 2: soil application on the day after sowing, green foxtail; conditions: Setaria viridis, read-out: Growth inhibition rate (%) Green foxtail; for inhibition at 250 g/ha: 250 g/ha active ingredient, observed 19th to 28th day after application
Procedure, shortened: as §1

wheat (Triticum spp.) [14] = experiment: Test Example 2: soil application on the day after sowing, wheat; conditions: Triticum, read-out: Growth inhibition rate (%) Wheat; for inhibition at 250 g/ha: 250 g/ha active ingredient, observed 19th to 28th day after application
From the text: Upland field soil was put into a 1/170,000 hectare pot, and seeds of various plants barnyardgrass (Echinochloa crus-galli L.), crabgrass (Digitaria sanquinalis L.), green foxtail (Setaria viridis L.), redroot pigweed (Amaranthus retroflexus L.), prickly sida (Sida spinosa L.), velvetleaf (Abutilon theophrasti MEDIC.), rice (Oryza sativa L.), wheat (Triticum spp.), corn (Zea mays L.) and soybean (Glycine max Merr.)) were sown. On the day after sowing, wettable powders or emulsifiable concentrates of the compounds of the above formula (I) prepared in accordance with a conventional preparation method, were weighed so that the active ingredients became the prescribed amounts, and diluted with water in an amount corresponding to 500 liter per 1 hectare, followed by soil application with a small sprayer.
On the 19th to 28th day after the application, the state of growth of the respective plants was visually observed, and the herbicidal effect was evaluated by a growth inhibition rate (%) of from 0 (equivalent to the non-treated area) to 100% (complete kill).

[15] = test system: prickly sida (Sida spinosa L.); experiment: Test Example 2: soil application on the day after sowing, prickly sida; conditions: Sida spinosa, read-out: Growth inhibition rate (%) Prickly sida; for inhibition at 250 g/ha: 250 g/ha active ingredient, observed 19th to 28th day after application
Procedure, shortened: as §1

[16] = test system: soybean (Glycine max Merr.); experiment: Test Example 1: foliar treatment, upland pot test, soybean; conditions: Glycine max, read-out: Growth inhibition rate (%) Soybean; for inhibition at 31 g/ha: 31 g/ha active ingredient, observed 17th to 25th day after application
[17] = test system: velvetleaf (Abutilon theophrasti MEDIC.); experiment: Test Example 2: soil application on the day after sowing, velvetleaf; conditions: Abutilon theophrasti, read-out: Growth inhibition rate (%) Velvetleaf; for inhibition at 250 g/ha: 250 g/ha active ingredient, observed 19th to 28th day after application
Procedure, shortened: as §1

wheat (Triticum spp.) [18] = experiment: Test Example 1: foliar treatment, upland pot test, wheat; conditions: Triticum, read-out: Growth inhibition rate (%) Wheat; for inhibition at 31 g/ha: 31 g/ha active ingredient, observed 17th to 25th day after application
Procedure, shortened: as §2

rice (Oryza sativa L.) [19] = experiment: Test Example 2: soil application on the day after sowing, rice; conditions: Oryza sativa, read-out: Growth inhibition rate (%) Rice; for inhibition at 250 g/ha: 250 g/ha active ingredient, observed 19th to 28th day after application
Procedure, shortened: as §1

rice (Oryza sativa L.) [20] = experiment: Test Example 1: foliar treatment, upland pot test, rice; conditions: Oryza sativa, read-out: Growth inhibition rate (%) Rice; for inhibition at 31 g/ha: 31 g/ha active ingredient, observed 17th to 25th day after application
Procedure, shortened: as §2

[21] = 500 g/ha active ingredient, observed 20th day after application
[22] = 63 g/ha active ingredient, observed 21st day after application

| SMILES | inhibition at 250 g/ha [1] [%] | inhibition at 31 g/ha [2] [%] | inhibition at 31 g/ha (corn (Zea mays L.) [3]) [%] | inhibition at 31 g/ha [4] [%] | inhibition at 250 g/ha [5] [%] | inhibition at 250 g/ha [6] [%] | inhibition at 31 g/ha [7] [%] | inhibition at 31 g/ha [8] [%] | inhibition at 250 g/ha [9] [%] | inhibition at 31 g/ha [10] [%] | inhibition at 31 g/ha [11] [%] | inhibition at 250 g/ha (corn (Zea mays L.) [12]) [%] | inhibition at 250 g/ha [13] [%] | inhibition at 250 g/ha (wheat (Triticum spp.) [14]) [%] | inhibition at 250 g/ha [15] [%] | inhibition at 31 g/ha [16] [%] | inhibition at 250 g/ha [17] [%] | inhibition at 31 g/ha (wheat (Triticum spp.) [18]) [%] | inhibition at 250 g/ha (rice (Oryza sativa L.) [19]) [%] | inhibition at 31 g/ha (rice (Oryza sativa L.) [20]) [%] | further results |
| --- | --- | --- | --- | --- | --- | --- | --- | --- | --- | --- | --- | --- | --- | --- | --- | --- | --- | --- | --- | --- | --- |
| Cc1c(C(=O)c2cnn(C)c2O)ccc(S(C)(=O)=O)c1OC(F)F [compound 146] | 100 | 40 | 0 | 80 | 90 | 0 | 30 | 50 | 100 | 80 | 30 | 0 | 95 | 0 | 90 | 60 | 40 | 0 | 70 | 20 | – |
| CCOC(=O)c1c(S(C)(=O)=O)ccc(C(=O)c2cnn(CC)c2O)c1Cl [compound 153] | 100 | 70 | 0 | 90 | 100 | 0 | 80 | 70 | 100 | 90 | 60 | 10 | 100 | 10 | 80 | 70 | 100 | 0 | 70 | 40 | – |
| COC(COc1c(S(C)(=O)=O)ccc(C(=O)c2cnn(C)c2O)c1C)OC [Compound No. 1, 5-hydroxy-1-methylpyrazol-4-yl 3-(2,2-dimethoxyethoxy)-2-methyl-4-(methylsulfonyl)phenyl ketone] | 100 | 80 | 10 | 98 | 100 | 40 | 90 | 100 | 90 | 98 | 98 | 0 | 100 | 40 | 30 | 98 | 95 | 30 | 90 | 80 | – |
| Cn1ncc(C(=O)c2ccc(S(C)(=O)=O)c(S(C)(=O)=O)c2Cl)c1O [compound 247] | – | – | – | – | – | – | – | – | – | – | – | – | – | – | – | – | – | – | – | – | inhibition at 500 g/ha [1, 21]: 100%; inhibition at 63 g/ha [2, 22]: 90%; inhibition at 63 g/ha (corn (Zea mays L.) [3]; [22]): 0%; inhibition at 63 g/ha [4, 22]: 100%; inhibition at 500 g/ha [5, 21]: 100%; inhibition at 500 g/ha [6, 21]: 50%; inhibition at 63 g/ha [7, 22]: 30%; inhibition at 63 g/ha [8, 22]: 80%; inhibition at 500 g/ha [9, 21]: 100%; inhibition at 63 g/ha [10, 22]: 90%; inhibition at 63 g/ha [11, 22]: 50%; inhibition at 500 g/ha (corn (Zea mays L.) [12]; [21]): 0%; inhibition at 500 g/ha [13, 21]: 100%; inhibition at 500 g/ha (wheat (Triticum spp.) [14]; [21]): 10%; inhibition at 500 g/ha [15, 21]: 75%; inhibition at 63 g/ha [16, 22]: 100%; inhibition at 500 g/ha [17, 21]: 100%; inhibition at 63 g/ha (wheat (Triticum spp.) [18]; [22]): 0%; inhibition at 500 g/ha (rice (Oryza sativa L.) [19]; [21]): 98%; inhibition at 63 g/ha (rice (Oryza sativa L.) [20]; [22]): 20% |
| Cc1c(C(=O)c2cnn(C)c2O)ccc(S(C)(=O)=O)c1C#N [compound 171] | 100 | 70 | 0 | 80 | 70 | 10 | 60 | 75 | 80 | 80 | 70 | 0 | 40 | 0 | 50 | 70 | 40 | 0 | 10 | 40 | – |
